T1: Squalene synthase (Rattus norvegicus, UniProt Q02769)
T1 sequence (Q02769 whole entry): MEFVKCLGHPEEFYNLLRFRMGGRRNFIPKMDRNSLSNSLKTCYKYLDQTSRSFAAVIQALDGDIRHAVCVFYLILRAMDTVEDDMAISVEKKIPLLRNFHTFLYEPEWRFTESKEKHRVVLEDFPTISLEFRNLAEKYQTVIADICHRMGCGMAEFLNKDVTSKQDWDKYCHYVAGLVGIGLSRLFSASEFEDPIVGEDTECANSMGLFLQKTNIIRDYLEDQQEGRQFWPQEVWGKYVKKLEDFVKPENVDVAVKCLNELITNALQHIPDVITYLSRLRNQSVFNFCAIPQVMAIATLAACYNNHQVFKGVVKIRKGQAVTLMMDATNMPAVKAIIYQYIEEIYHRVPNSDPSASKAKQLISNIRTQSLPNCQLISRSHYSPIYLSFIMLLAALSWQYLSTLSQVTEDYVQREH

B1: Squalene synthase (Rattus norvegicus), Q02769 (protein)
chain: MEFVKCLGHPEEFYNLLRFRMGGRRNFIPKMDRNSLSNSLKTCYKYLDQTSRSFAAVIQALDGDIRHAVCVFYLILRAMDTVEDDMAISVEKKIPLLRNFHTFLYEPEWRFTESKEKHRVVLEDFPTISLEFRNLAEKYQTVIADICHRMGCGMAEFLNKDVTSKQDWDKYCHYVAGLVGIGLSRLFSASEFEDPIVGEDTECANSMGLFLQKTNIIRDYLEDQQEGRQFWPQEVWGKYVKKLEDFVKPENVDVAVKCLNELITNALQHIPDVITYLSRLRNQSVFNFCAIPQVMAIATLAACYNNHQVFKGVVKIRKGQAVTLMMDATNMPAVKAIIYQYIEEIYHRVPNSDPSASKAKQLISNIRTQSLPNCQLISRSHYSPIYLSFIMLLAALSWQYLSTLSQVTEDYVQREH

target: T1, Squalene synthase; assay: Tested for inhibitory potency against rat liver microsomal squalene synthase; settings: not given

For CC(C)=CCC/C(C)=C\CC/C(C)=C/COCP(=O)(O)CP(=O)(O)O, the Ki was 37 nM.

same assay, conditions: read-out: I50

Point of comparison: CC(C)=CCC/C(C)=C/c1cc(C)c(COCP(=O)(O)CP(=O)(O)O)o1, IC50 41300 nM. Against it:
- CC(C)=CCC/C(C)=C/c1ccc(COCP(=O)(O)CP(=O)(O)O)s1 — 43-fold lower, 964 nM
- CC(C)=CCC/C(C)=C/c1ccc(COCP(=O)(O)CP(=O)(O)O)c(C)c1 — 3-fold lower, 13700 nM
- CC(C)=CCC/C(C)=C\CC/C=C/COCP(=O)(O)CP(=O)(O)O — 250-fold lower, 165 nM
- CC(C)=CCC/C(C)=C/c1ccc(COCP(=O)(O)CP(=O)(O)O)cc1 — 330-fold lower, 125 nM
- CC(C)=CCC/C(C)=C/c1cccc(COCP(=O)(O)CP(=O)(O)O)c1 — 8.1-fold lower, 5100 nM
- CC(C)=CCC/C(C)=C/c1cc(C)c(COCP(=O)(O)CP(=O)(O)O)s1 — 7.8-fold lower, 5300 nM
- CC(C)=CCC/C(C)=C\CC/C(C)=C/COCP(=O)(O)CP(=O)(O)O — 830-fold lower, 50 nM

substrate: CC(C)=CCC/C(C)=C\CC/C(C)=C/COCP(=O)(O)CP(=O)(O)O; assay: Tested for Michaelis-Menten constant for squalene synthase; settings: not given

With B1 the Km was 12.7 µM.
